# Test results reported in the SangsterLogP compilation.
# Experiment: not given
row,logP,SMILES
1,2.73,O=c1[nH]c2ccccc2n1CCCN1CCN(C(c2ccccc2)c2ccccc2)CC1

# Experiment: method code SF, from DOI: 10.1063/1.555833
row,SMILES,logP
1,COc1ccc(-c2cnoc2N)cc1OC,0.48
2,CCCCN1C(=O)c2ccc([N+](=O)[O-])cc2C1=O,2.26
3,CCc1n[nH]c(N)c1-c1ccc(OC)c(OC)c1,1.37
4,Cc1cc2c(c3c1[nH]c1ccccc13)C(=O)CC(C)(C)C2,3.58
5,COc1ccc(Cc2nc3ccccc3c(=O)n2N)cc1OC,1.94
6,O=C(NCCCCCCNC(=O)c1ccccc1O)c1ccccc1O,2.85
7,COc1ccc(-c2c(C)n[nH]c2N)cc1OC,1.33
8,CC(=O)n1cc(C2=C(O)C(C)(C)CCC2=O)c2ccccc21,2.16
9,COc1ccc(-c2c(C)noc2N)cc1OC,1.53
10,O=C1Cc2ccccc2C(c2ccc([N+](=O)[O-])cc2)N1 (configuration not stated),2.48
11,COc1ccc(-c2cn[nH]c2N)cc1OC,0.85

# The remaining lines, values ahead:
row,logP,SMILES
1,2.39,Nc1[nH]nc(Cc2ccccc2)c1-c1ccccc1
2,1.96,CCc1n[nH]c(N)c1-c1ccccc1
3,2.82,CCc1nn(-c2ccccc2)c(N)c1-c1ccc(OC)c(OC)c1
4,2.92,Cc1nn(-c2ccccc2)c(N)c1-c1ccccc1
5,2.52,Nc1c(-c2ccccc2)cnn1-c1ccccc1
